Reference: patent US10081632B2, “Substituted tetrahydropyrido[3′,2′:4,5]pyrrolo[1,2-α]pyrazine-2-carboxamides as RSK inhibitors” (Phoenix Molecular Designs, priority 2016, dated 2018)

How the values were obtained:
[1] = Solubility assessment, 20 mg/ml solution; format: physicochemical; conditions: 100 mM in DMSO diluted in DMEM growth media to 20 mg/ml
Method: Solubility is an important property for therapeutic drug candidates. Poor solubility can lead to low bioavailability resulting in suboptimal drug delivery. It can also prevent the evaluation of test agents in animals because the concentration(s) needed to achieve the desired effect cannot be achieved to poor solubility. For solubility assessments, small molecules targeting RSK were compared. For these assessments, 100 mM solutions of the compounds dissolved in DMSO were diluted in DMEM growth media (Life Technologies) supplemented with fetal bovine serum (FBS, Life Technologies) and 100 units/ml penicillin and 100 units/ml streptomycin (Life Technologies) to make 20 mg/ml solutions. Once diluted, the solutions were vortexed and examined for the formation of precipitates. […] For Compound 26, a 100 mM solution of the compound dissolved in DMSO was diluted in phosphate buffered saline (Life Technologies) to make a 20 mg/ml solution. The stock of […] was chosen because this is the upper end of what would be required to dose mice for a range of studies including MTD, PK, PD and efficacy. The pH of this solution was determined to be 2, as previously described. […] At high concentrations some RSK inhibitors were highly soluble while others were not. Compound 0 is (R)—N-(1-benzyl-1H-pyrazol-4-yl)-9-methyl-6-oxo-6,7,8,9-tetrahydropyrido[3′,2′:4,5]pyrrolo[1,2-a]pyrazine-2-carboxamide. Compound 0 was not soluble, whereas Compounds 18, 20, 21, 25 and 26 were soluble under the same conditions (Table 5).

4T1 cells [2] = assay: Soft agar growth inhibition assay; format: cell-based; conditions: Mus musculus; 4T1 (TNBC), 14-22 days; read-out: IC50 Values - Soft Agar (14-22 Days)
Method: Two agar (Alfa Aesar) solutions (0.8% w/v and 0.4% w/v) were prepared in ultrapure water. The 0.8% agar solution was mixed in equal volumes with 2× media previously prepared from powder (Life Technologies) following the manufacturer's instructions and filter sterilized. The 0.8% agar and media solution was added to 24 well plates (Mandel Scientific) at 500 μl per well. The plates were placed in a humidified incubator at 37° C. with 5% CO2. Next, the 0.4% agar solution was mixed in equal volumes with 2× media. Breast cancer cell lines were added to this solution to achieve a final concentration of 2×10^4 cells per well and […] was added to each well on top of the bottom agar and media layer. […] The plates were returned to the incubator for 10-32 days, with a re-dosing of compounds or DMSO every 7 days. After 10-32 days, colonies were counted in 3 different fields of view for each well.
Representative compounds described herein were tested in the soft agar growth inhibition assay against the 4T1 breast cancer cell line.

[3] = system: phosphorylated Y-box binding protein-1 (YB-1) at serine 102 (P-YB-1S102); assay: Immunoblotting of cell signalling, loss of P-YB-1 in MDA-MB-231 cells; conditions: Homo sapiens, MDA-MB-231, read-out: IC50 values for P-YB-1
T47D cells [4] = assay: Monolayer growth inhibition, Alamar blue assay; format: cell-based, Human; conditions: Homo sapiens; T47D (ER/PR), 5 days, single dose on day 1
From the text: (§1) In all instances a single dose was given on day 1 of the experiment.

SUM149-PTXR cells [5] = assay: Monolayer growth inhibition, Alamar blue assay; format: cell-based, Human; conditions: Homo sapiens; SUM149-PTXR (TNBC, BRCA Mutant), 5 days, single dose on day 1
From the text: as §1

MDA-MB-231 cells [6] = assay: Monolayer growth inhibition, crystal violet assay; format: cell-based; conditions: Homo sapiens; MDA-MB-231 (TNBC), 5 days, single dose on day 1
From the text: as §1

MDA-MB-435 cells [7] = assay: Monolayer growth inhibition, crystal violet assay; format: cell-based; conditions: Homo sapiens; MDA-MB-435 (Melanoma), 5 days, single dose on day 1
From the text: as §1

HCC1143 cells [8] = assay: Monolayer growth inhibition, crystal violet assay; format: cell-based; conditions: Homo sapiens; HCC1143 (TNBC), 5 days, single dose on day 1
From the text: as §1

SUM149 cells [9] = assay: Monolayer growth inhibition, crystal violet assay; format: cell-based; conditions: Homo sapiens; SUM149 (TNBC, BRCA Mutant), 5 days, single dose on day 1
From the text: as §1

4T1 cells [10] = assay: Monolayer growth inhibition, crystal violet assay; format: cell-based; conditions: Mus musculus; 4T1 (TNBC), 5 days, single dose on day 1
From the text: as §1

SUM149-PTXR cells [11] = assay: Monolayer growth inhibition, crystal violet assay; format: cell-based; conditions: Homo sapiens; SUM149-PTXR (TNBC, BRCA Mutant), 5 days, single dose on day 1
From the text: as §1

PC3 cells [12] = assay: Monolayer growth inhibition, crystal violet assay; format: cell-based; conditions: Homo sapiens, PC-3; PC3 (Prostate), 5 days, single dose on day 1
From the text: as §1

All cell lines [13] = assay: Monolayer growth inhibition, crystal violet assay, range over all cell lines; format: cell-based; conditions: 120 h; range of IC50 over all cell lines of the table; read-out: IC50 Values - Crystal Violet (5 Days), Range, All
From the text: (§2) In all instances a single dose was given on day 1 of the experiment. […] Complete (100%) growth suppression was achievable with several of the compounds in multiple different cell lines.

All cell lines [14] = assay: Monolayer growth inhibition, Alamar blue assay, range over all cell lines; format: cell-based; conditions: 120 h; range of IC50 over all cell lines of the table; read-out: IC50 Values - Alamar Blue (5 Days), Range, All
From the text: as §1

MDA-MB-468 cells [15] = assay: Soft agar growth inhibition assay; format: cell-based, Human; conditions: Homo sapiens; MDA-MB-468 (TNBC), 14-22 days
MDA-MB-231 cells [16] = assay: Soft agar growth inhibition assay; format: cell-based; conditions: Homo sapiens; MDA-MB-231 (TNBC), 14-22 days; read-out: IC50 Values - Soft Agar (14-22 Days)
MDA-MB-231 cells [17] = assay: Monolayer growth inhibition, Alamar blue assay; format: cell-based; conditions: Homo sapiens; MDA-MB-231 (TNBC), 5 days, single dose on day 1
From the text: as §1

MDA-MB-435 cells [18] = assay: Monolayer growth inhibition, Alamar blue assay; format: cell-based; conditions: Homo sapiens; MDA-MB-435 (Melanoma), 5 days, single dose on day 1
From the text: as §1

HCC1143 cells [19] = assay: Monolayer growth inhibition, Alamar blue assay; format: cell-based; conditions: Homo sapiens; HCC1143 (TNBC), 5 days, single dose on day 1
From the text: as §1

SUM149 cells [20] = assay: Monolayer growth inhibition, Alamar blue assay; format: cell-based; conditions: Homo sapiens; SUM149 (TNBC, BRCA Mutant), 5 days, single dose on day 1
From the text: as §1

4T1 cells [21] = assay: Monolayer growth inhibition, Alamar blue assay; format: cell-based; conditions: Mus musculus; 4T1 (TNBC), 5 days, single dose on day 1
From the text: as §1

JIMT-1 cells [22] = assay: Monolayer growth inhibition, Alamar blue assay; format: cell-based; conditions: Homo sapiens; JIMT-1 (HER2), 5 days, single dose on day 1
From the text: as §1

MDA-MB-468 cells [23] = assay: Monolayer growth inhibition, Alamar blue assay; format: cell-based; conditions: Homo sapiens; MDA-MB-468 (TNBC), 5 days, single dose on day 1
From the text: as §1

HCC1937 cells [24] = assay: Monolayer growth inhibition, Alamar blue assay; format: cell-based; conditions: Homo sapiens; HCC1937 (TNBC, BRCA Mutant), 5 days, single dose on day 1
From the text: as §1

PC3 cells [25] = assay: Monolayer growth inhibition, Alamar blue assay; format: cell-based; conditions: Homo sapiens, PC-3; PC3 (Prostate), 5 days, single dose on day 1
From the text: as §1

T47D cells [26] = assay: Monolayer growth inhibition, crystal violet assay; format: cell-based; conditions: Homo sapiens; T47D (ER/PR), 5 days, single dose on day 1
From the text: as §2

JIMT-1 cells [27] = assay: Monolayer growth inhibition, crystal violet assay; format: cell-based; conditions: Homo sapiens; JIMT-1 (HER2), 5 days, single dose on day 1
From the text: as §2

MDA-MB-468 cells [28] = assay: Monolayer growth inhibition, crystal violet assay; format: cell-based; conditions: Homo sapiens; MDA-MB-468 (TNBC), 5 days, single dose on day 1
From the text: as §2

HCC1937 cells [29] = assay: Monolayer growth inhibition, crystal violet assay; format: cell-based; conditions: Homo sapiens; HCC1937 (TNBC, BRCA Mutant), 5 days, single dose on day 1
From the text: as §2

Row | SMILES | Solubility, 20 mg/ml Solution [1] | IC50 (4T1 cells [2]) [µM] | IC50 [3] [µM] | IC50 (T47D cells [4]) [µM] | IC50 (SUM149-PTXR cells [5]) [µM] | IC50 (MDA-MB-231 cells [6]) [µM] | IC50 (MDA-MB-435 cells [7]) [µM] | IC50 (HCC1143 cells [8]) [µM] | IC50 (SUM149 cells [9]) [µM] | IC50 (4T1 cells [10]) [µM] | IC50 (SUM149-PTXR cells [11]) [µM] | IC50 (PC3 cells [12]) [µM] | IC50 (All cell lines [13]) [µM] | IC50 (All cell lines [14]) [µM] | IC50 (MDA-MB-468 cells [15]) [µM] | IC50 (MDA-MB-231 cells [16]) [µM] | IC50 (MDA-MB-231 cells [17]) [µM] | IC50 (MDA-MB-435 cells [18]) [µM] | IC50 (HCC1143 cells [19]) [µM] | IC50 (SUM149 cells [20]) [µM] | other results
1 | C[C@@H]1CNC(=O)c2cc3ccc(C(=O)Nc4cnn(Cc5ccc(C(F)(F)F)cc5)c4)nc3n21 [Compound 22, (R)-9-methyl-6-oxo-N-(1-(4-(trifluoromethyl)benzyl)-1H-pyrazol-4-yl)-6,7,8,9-tetrahydropyrido[3′,2′:4,5]pyrrolo[1,2-a]pyrazine-2-carboxamide] | Precipitate | 3.8 ± 1.9 | 0.024 | 4.8 ± 0.9 | 7.8 ± 4.6 | 6.6 ± 2.1 | 3.2 ± 1.3 | 6.6 ± 3.1 | 6.2 ± 4.8 | 2.6 ± 1.5 | 8 ± 1.3 | 6.8 ± 1.8 | 2.6 to 14.2 | 4.5 to 17.1 | 6.9 ± 1.7 | 0.2 ± 0.1 | 13.9 ± 3.5 | 6.8 ± 6.4 | 9.9 ± 1 | 7.7 ± 4.6 | IC50 (4T1 cells [21]): 4.5 ± 1 µM; IC50 (JIMT-1 cells [22]): 17.1 ± 2.4 µM; IC50 (MDA-MB-468 cells [23]): 7.5 ± 2.1 µM; IC50 (HCC1937 cells [24]): 12.6 ± 3.5 µM; IC50 (PC3 cells [25]): 9.2 ± 1.5 µM; IC50 (T47D cells [26]): 4.3 ± 2.1 µM; IC50 (JIMT-1 cells [27]): 14.2 ± 5.1 µM; IC50 (MDA-MB-468 cells [28]): 6.6 ± 2.3 µM; IC50 (HCC1937 cells [29]): 9.9 ± 3 µM
2 | C[C@@H]1CNC(=O)c2cc3ccc(C(=O)Nc4cnn(Cc5ccc(F)cc5F)c4)nc3n21 [Compound 23, (R)—N-(1-(2,4-difluorobenzyl)-1H-pyrazol-4-yl)-9-methyl-6-oxo-6,7,8,9-tetrahydropyrido[3′,2′:4,5]pyrrolo[1,2-a]pyrazine-2-carboxamide] | Precipitate | 2.4 ± 0.6 | 0.033 | 6 ± 4.9 | 5.1 ± 4 | 3.6 ± 0.8 | 1.1 ± 0.8 | 7.3 ± 3.4 | 2.1 ± 1.6 | 1.8 ± 0.8 | 5 ± 2.4 | 6.8 ± 1.8 | 1.1 to 15 | 1.1 to 19.8 | 4 ± 0.8 | 0.3 ± 0.2 | 7.8 ± 2 | 1.1 ± 0.7 | 9.7 ± 1.3 | 3 ± 2.4 | IC50 (4T1 cells [21]): 2.5 ± 0.8 µM; IC50 (JIMT-1 cells [22]): 19.8 ± 7.1 µM; IC50 (MDA-MB-468 cells [23]): 9.7 ± 1.8 µM; IC50 (HCC1937 cells [24]): 10.5 ± 1 µM; IC50 (PC3 cells [25]): 10.7 ± 1.1 µM; IC50 (T47D cells [26]): 4.7 ± 4.9 µM; IC50 (JIMT-1 cells [27]): 15 ± 6.1 µM; IC50 (MDA-MB-468 cells [28]): 7.2 ± 1.5 µM; IC50 (HCC1937 cells [29]): 8.6 ± 3 µM
